The target of series [1] is T1, human TRPM3 (Homo sapiens, UniProt Q9HCF6).
T1 construct: expressed in transfected cells; host or cells: HEK293 (line hTRPM3)
Description: Specificity test, calcium influx in hTRPM3 HEK293 cells. In kind it is cell-based. Conditions: FIG. 1. The protocol: (§1) HEK293 (ATCC CRL-1573) cells were grown in Earle's Minimum Essential Medium (MEM) supplemented with 10 Vol.-% fetal calf serum, 2 mM (mmol/l) L-glutamine, 100 units/ml penicillin and 0.1 mg/ml streptomycin. Cells were seeded in 35-mm culture dishes, grown for 24 h, and transfected at 80% confluence with 2 μg of plasmid DNA encoding a C-terminally YFP-tagged human TRPC6 and 4 μl of Fugene HD reagent (Roche) in 100 μl serum-free medium. To select stably transfected HEKhTRPC6-YFP clones, 1 mg/ml geneticin (G418) was added to the medium. […] To verify functional expression, different clones were isolated and tested by single-cell [Ca^2+]i imaging experiments. […]
(§2) To assess the effect of bicyclic labdane diterpenes on calcium transport via TRP channels, larixol and larixol acetate was added to cell lines from example 1. Blocking of the respective TRP channel was determined by determining increases in [Ca^2+]i in suspensions. To activate the TRP channels, an activator of the respective channel was added, and changes in fluorescence intensity of intracellularly loaded fluo-4 was determined with a multiwell plate reader device (Polarstar Omega, BMG Labtech). For HEKrTRPV1 cells, assessment of activation was performed by monitoring the intracellular acidification, which results in fluorescence loss of co-expressed YFP. […]

Series [2] addresses T2, human TRPM8 (Homo sapiens, UniProt Q7Z2W7).
T2 construct: expressed in transfected cells; host or cells: HEK293 (line hTRPM8)
Briefly: Specificity test, calcium influx in hTRPM8 HEK293 cells. Conditions: FIG. 1. Type of series: cell-based. The method, then: as §1, §2

For series [3], the target named is T3, human TRPM2 (Homo sapiens, UniProt O94759).
T3 construct: expressed in transfected cells; host or cells: HEK293 (line hTRPM2)
Description: Specificity test, calcium influx in hTRPM2 HEK293 cells. In kind it is cell-based. The note with it: activator 1 mM H2O2; FIG. 1. The method, then: as §1, §2

In series [4] the test system is other TRP channels. Description: Specificity tests in cell lines overexpressing other TRP channels. In kind it is cell-based. Conditions: FIG. 1. The method, then:
as §1, §2

The subject of series [5] is hypoxia-induced pulmonary vasoconstriction (HPV). Briefly: Hypoxia-induced pulmonary vasoconstriction (HPV) in isolated perfused mouse lungs. In kind it is in vivo. Conditions: 5 μM in perfusion solution; isolated perfused C57BL/6 mouse lungs; 1% O2. The method, then:
FIG. 4 Inhibition of hypoxia-induced pulmonary vasoconstriction (HPV) by larixol acetate.
To assess whether the TRPC6 blocking action of larixol acetate is potent to prevent HPV, larixol acetate was supplied in an induced mouse model of HPV.
Anesthetized, male adult C57BL/6 mice were subjected to tracheostomy, followed by volume-controlled normoxic ventilation. Midsternal thoracotomy was performed, and two cannulas (1 mm inner diameter) were inserted into the pulmonary artery and left atrium, respectively. Lungs were then perfused at a constant flow at 37° C. with a Hanks' Balanced Salt Solution (Sigma-Aldrich) containing 5% bovine serum albumin (Sigma-Aldrich) and 5% dextran (Sigma-Aldrich) at pH of 7.4. Indomethacin (30 μM) and N^G-nitro-L-arginine methylester (1 mM) were added to the perfusate to inhibit endogenous prostaglandin and nitric oxide synthesis.

In series [6] the target is T4, TRPC6 (Homo sapiens, UniProt Q9Y210).
T4 construct: expressed in transfected cells
T4 sequence (Q9Y210 1-931): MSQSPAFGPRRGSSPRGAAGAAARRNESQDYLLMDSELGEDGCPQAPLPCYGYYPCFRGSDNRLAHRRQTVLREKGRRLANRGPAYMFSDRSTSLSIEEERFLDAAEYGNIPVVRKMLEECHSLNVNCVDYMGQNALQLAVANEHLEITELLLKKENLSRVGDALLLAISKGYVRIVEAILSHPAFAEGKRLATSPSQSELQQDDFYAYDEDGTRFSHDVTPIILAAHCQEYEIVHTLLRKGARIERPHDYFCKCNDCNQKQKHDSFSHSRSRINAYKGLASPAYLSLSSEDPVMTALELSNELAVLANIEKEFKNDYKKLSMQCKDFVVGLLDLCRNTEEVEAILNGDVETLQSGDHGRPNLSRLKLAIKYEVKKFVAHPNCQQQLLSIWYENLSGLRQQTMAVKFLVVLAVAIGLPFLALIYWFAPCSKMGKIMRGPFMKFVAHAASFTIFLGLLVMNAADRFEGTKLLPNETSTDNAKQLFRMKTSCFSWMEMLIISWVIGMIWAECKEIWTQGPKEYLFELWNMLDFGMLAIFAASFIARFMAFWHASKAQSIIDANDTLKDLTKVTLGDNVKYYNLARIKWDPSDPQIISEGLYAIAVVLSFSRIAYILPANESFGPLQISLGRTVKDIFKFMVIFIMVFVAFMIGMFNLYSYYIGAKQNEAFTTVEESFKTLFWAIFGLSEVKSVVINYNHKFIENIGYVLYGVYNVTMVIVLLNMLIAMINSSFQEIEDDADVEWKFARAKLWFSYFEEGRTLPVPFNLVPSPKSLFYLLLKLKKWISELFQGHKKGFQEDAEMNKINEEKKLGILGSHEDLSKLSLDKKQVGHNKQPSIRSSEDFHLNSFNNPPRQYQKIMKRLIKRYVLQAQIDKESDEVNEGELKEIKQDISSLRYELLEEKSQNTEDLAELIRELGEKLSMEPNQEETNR
Briefly: Electrophysiological whole-cell recordings of TRPC6-mediated current. In kind it is cell-based. The method, then:
FIG. 2 Larixol acetate acts from the outside of the cells. A: Electrophysiological whole-cell recordings were performed to determine the TRPC6-mediated current upon direct stimulation with 50 μM OAG or by activating heterotrimeric G-proteins with intracellularly applied AlF4 (50 μM), to trigger phospholipase C activation, resulting in the formation of endogenous diacylglycerols. To expose the cytosolic side of the channel protein to larixol acetate, larixol acetate was added to the intracellular solution (hatched bars and filled bars). Control solutions without larixol acetate (open bars) were measured in parallel.
TRPC6-expressing cells were seeded on glass coverslips, mounted onto the stage of an inverted microscope, and contacted with a borosilicate glass pipet filled with an intracellular solution. After reaching a gigaohm seal, the whole-cell configuration was obtained by gently applying a negative pressure at the pipet. Whole-cell currents were measured in the voltage clamped mode with a holding potential of −60 mV, and normalized for the cell size by dividing current amplitudes by the cellular capacitance (pA/pF). TRPC6 was activated either by adding OAG to the bath solution or by including 50 μM AlF4^− in the pipet solution.
In some experiments, the pipet solution was additionally supplemented with 1 μM larixol acetate to apply the modulator intracellularly (FIG. 2A, “inside”).

Series [7] concerns the target T5, rat TRPV1 (Rattus norvegicus, UniProt O35433).
T5 construct: expressed in transfected cells; host or cells: HEK293 (line rTRPV1)
Briefly: Specificity test in HEKrTRPV1 cells (intracellular acidification, YFP fluorescence loss). In kind it is cell-based. Conditions: activator 2 μM capsaicin; FIG. 1. The protocol: as §1, §2

Series [8] concerns the target T4, TRPC6. Description: Calcium influx (fluo-4 [Ca2+]i) in TRPC6-expressing HEK293 cells. In kind it is cell-based. The note with it: 0.01 to 20 μM; activated with 50 μM OAG or GPCR agonist mix; FIG. 1. The method, then:
as §1, §2

For series [9], the system named is lung edema formation. Briefly: Ischemia-reperfusion-associated lung edema formation, rabbit lung transplantation model. Type of series: in vivo. The note with it: 5 μM in Perfadex and Tyrode solutions, explanted rabbit lungs. The method, then:
FIG. 5 Inhibition of ischemia-reperfusion-associated lung edema formation by larixol acetate. Rabbit lungs were explanted and extracorporally perfused with Perfadex solution and ventilated under oxygenized conditions (open symbols) or under hypoxic conditions (filled symbols). Lungs were then placed on ice for 2 h, and reperfused for 90 min with tyrode solution. Upper panel: control experiments without larixol acetate, lower panel: similar experiments, but with Perfadex® and tyrode solutions that were supplemented with 5 μM larixol acetate. Increases in the lung wet weight indicate edema formation. Data represent means and S.E.M. (Standard error of the mean) of 6 individual experiments for each treatment group.
To assess whether larixol acetate mediated TRPC6 block can prevent endothelial dysfunction, the effect of larixol acetate was tested on lung edema formation in a rabbit lung transplantation model.
New Zealand white rabbits were anesthetized and subjected to tracheostomy. Animals were mechanically ventilated with room air (40 breaths min^−1) The thorax was opened by midline sternotomy, pulmonary arteries and the left atrium were cannulated, the heart-lung-block was excised and transferred to a thermostatted artificial thorax chamber. […] The wet weight of the lungs was recorded during the whole procedure. […]

Series [10] relates to HEK293 cells. Description: Propidium iodide exclusion cytotoxicity assay. Type of series: cell-based, human. The note with it: concentrations up to 10 μM, 24 h incubation. The protocol:
FIG. 3 Larixol and larixol acetate to not show a cytotoxic effect on HEK293 cells. The cellular integrity was determined by exclusion of the DNA-binding fluorescent dye propidium iodide (PI).
To assess possible cytotoxic effects of the larixol and larixol acetate, a propidium iodide exclusion assay was performed. Cells were grown in 24 well plates for 18 h and then incubated with the indicated compounds for another 24 h (FIG. 3). Propidium iodide (2 μg/ml, Invitrogen) was added, and the fluorescence (excitation at 544 nm and detection at 620 nm) was followed. To obtain a maximum reference value, 0.2% Triton X-100 was added to some samples prior to propidium iodide injection. The following controls were tested: • negative controls: HBS buffer (“control”), or 0.1% DMSO in HBS buffer, added to the growth medium in the same volume as for 10 μM larixol (“0.1% DMSO”). • positive controls: 2 μm staurosporine, 50 μm digitonin

These results are taken from patent US20140309300A1, “Bicyclic Labdane Diterpenes for Use in the Treatment of TRPC6 Associated Diseases” (UNIVERSITAET LEIPZIG, priority 2011, published 2014).

T5 sequence (O35433 whole entry): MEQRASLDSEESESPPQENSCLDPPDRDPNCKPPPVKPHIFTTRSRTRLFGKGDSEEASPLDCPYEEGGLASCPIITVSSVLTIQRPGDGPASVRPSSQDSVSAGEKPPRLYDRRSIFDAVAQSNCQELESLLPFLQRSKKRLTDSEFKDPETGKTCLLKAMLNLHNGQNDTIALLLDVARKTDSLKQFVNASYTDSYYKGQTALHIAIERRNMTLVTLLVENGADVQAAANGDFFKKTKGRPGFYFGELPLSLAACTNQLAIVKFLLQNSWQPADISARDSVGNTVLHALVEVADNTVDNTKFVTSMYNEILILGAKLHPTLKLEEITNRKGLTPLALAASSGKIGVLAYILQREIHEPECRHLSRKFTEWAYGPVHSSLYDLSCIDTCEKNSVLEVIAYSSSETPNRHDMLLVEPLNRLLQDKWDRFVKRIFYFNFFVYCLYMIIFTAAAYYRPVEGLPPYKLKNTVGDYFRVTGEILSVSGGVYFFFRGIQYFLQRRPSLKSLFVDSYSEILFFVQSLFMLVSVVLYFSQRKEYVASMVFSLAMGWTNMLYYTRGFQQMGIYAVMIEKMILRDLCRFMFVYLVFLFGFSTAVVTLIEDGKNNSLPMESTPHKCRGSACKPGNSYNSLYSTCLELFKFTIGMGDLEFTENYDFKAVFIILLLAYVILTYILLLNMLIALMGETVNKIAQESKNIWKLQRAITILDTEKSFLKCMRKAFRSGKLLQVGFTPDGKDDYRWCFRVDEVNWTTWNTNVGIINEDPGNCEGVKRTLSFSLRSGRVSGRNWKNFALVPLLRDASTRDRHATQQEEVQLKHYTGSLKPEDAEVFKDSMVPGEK
T3 sequence (O94759 whole entry): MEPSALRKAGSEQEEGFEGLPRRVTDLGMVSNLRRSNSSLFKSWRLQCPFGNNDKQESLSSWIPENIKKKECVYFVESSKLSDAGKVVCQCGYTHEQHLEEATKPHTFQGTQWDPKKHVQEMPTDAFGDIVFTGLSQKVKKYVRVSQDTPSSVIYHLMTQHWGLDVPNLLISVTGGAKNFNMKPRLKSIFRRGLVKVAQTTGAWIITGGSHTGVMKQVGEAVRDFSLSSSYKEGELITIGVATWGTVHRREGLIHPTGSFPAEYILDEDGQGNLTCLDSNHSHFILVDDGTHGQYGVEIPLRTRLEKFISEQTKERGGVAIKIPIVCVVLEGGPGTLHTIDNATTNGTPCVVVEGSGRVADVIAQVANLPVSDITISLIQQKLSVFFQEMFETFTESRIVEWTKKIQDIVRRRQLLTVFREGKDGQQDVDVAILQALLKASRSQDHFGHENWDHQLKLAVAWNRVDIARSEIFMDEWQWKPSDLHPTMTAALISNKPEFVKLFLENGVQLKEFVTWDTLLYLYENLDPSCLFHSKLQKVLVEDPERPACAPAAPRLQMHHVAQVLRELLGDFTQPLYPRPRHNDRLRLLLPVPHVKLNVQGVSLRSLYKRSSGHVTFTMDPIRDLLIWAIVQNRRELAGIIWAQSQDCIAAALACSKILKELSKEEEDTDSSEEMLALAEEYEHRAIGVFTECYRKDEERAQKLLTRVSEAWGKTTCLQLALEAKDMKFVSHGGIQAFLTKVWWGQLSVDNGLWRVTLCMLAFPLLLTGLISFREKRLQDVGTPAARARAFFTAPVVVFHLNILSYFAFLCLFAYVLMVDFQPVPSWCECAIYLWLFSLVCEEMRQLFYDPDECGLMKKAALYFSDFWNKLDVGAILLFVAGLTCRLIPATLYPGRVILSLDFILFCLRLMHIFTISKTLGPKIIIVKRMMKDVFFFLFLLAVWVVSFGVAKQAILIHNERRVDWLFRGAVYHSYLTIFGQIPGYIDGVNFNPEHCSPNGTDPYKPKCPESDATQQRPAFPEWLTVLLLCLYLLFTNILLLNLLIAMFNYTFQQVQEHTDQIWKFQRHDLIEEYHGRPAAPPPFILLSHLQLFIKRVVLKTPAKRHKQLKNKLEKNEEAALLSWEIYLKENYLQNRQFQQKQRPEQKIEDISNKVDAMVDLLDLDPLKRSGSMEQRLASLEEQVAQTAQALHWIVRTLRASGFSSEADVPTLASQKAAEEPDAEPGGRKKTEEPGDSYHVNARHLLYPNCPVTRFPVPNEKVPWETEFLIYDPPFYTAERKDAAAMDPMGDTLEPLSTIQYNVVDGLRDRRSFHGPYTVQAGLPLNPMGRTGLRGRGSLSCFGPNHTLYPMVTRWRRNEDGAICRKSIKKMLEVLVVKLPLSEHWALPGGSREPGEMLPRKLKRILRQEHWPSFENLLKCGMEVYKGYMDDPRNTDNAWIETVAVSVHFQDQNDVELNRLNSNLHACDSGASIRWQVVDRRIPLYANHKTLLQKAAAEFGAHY
T1 sequence (Q9HCF6 whole entry): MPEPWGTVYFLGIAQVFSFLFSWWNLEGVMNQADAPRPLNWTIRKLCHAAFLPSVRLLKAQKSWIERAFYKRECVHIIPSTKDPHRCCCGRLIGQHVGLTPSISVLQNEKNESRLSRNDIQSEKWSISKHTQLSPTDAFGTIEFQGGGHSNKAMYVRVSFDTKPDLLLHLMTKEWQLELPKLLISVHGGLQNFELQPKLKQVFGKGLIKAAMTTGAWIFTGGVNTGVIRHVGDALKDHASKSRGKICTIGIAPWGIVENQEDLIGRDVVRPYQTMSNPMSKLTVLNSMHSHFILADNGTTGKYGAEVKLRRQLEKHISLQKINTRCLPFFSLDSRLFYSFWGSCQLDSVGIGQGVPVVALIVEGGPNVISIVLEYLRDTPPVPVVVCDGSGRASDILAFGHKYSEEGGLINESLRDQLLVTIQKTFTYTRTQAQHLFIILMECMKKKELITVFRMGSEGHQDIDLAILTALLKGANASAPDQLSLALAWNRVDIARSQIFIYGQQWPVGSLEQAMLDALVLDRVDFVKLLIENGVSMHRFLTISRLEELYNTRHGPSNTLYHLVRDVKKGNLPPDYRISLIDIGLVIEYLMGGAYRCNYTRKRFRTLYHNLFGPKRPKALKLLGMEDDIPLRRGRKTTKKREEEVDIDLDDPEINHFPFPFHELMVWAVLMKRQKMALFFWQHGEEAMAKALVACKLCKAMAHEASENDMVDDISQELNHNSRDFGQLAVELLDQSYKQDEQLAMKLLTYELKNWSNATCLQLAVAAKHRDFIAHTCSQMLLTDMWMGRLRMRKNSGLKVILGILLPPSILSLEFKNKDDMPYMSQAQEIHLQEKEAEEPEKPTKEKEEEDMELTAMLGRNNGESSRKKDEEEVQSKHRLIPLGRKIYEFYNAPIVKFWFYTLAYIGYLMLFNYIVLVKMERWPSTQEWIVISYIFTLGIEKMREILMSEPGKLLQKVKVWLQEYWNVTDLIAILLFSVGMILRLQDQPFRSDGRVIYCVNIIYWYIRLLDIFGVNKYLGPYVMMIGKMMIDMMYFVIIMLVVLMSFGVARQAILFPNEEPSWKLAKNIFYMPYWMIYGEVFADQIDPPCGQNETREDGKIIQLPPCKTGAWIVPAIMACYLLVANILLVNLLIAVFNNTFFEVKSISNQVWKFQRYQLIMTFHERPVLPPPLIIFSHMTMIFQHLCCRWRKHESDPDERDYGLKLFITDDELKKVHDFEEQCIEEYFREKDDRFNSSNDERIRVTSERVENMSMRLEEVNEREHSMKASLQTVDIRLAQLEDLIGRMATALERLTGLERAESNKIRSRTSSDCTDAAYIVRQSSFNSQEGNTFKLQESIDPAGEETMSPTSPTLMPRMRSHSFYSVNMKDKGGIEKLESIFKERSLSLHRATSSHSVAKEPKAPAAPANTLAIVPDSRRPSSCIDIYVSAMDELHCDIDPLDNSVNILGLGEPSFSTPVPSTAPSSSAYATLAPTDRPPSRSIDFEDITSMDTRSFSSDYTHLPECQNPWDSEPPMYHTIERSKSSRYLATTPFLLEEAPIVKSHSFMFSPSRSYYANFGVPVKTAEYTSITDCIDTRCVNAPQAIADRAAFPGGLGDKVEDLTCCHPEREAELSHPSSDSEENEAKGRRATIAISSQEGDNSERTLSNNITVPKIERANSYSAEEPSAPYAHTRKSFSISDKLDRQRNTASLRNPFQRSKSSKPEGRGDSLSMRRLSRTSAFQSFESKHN

On to larixol acetate, for which the “effect on TRPM3” value in series [1] was “not affected”. The “effect on TRPM8” value in [2] is “not affected”. The “effect on TRPM2” value in series [3] is on record as “not affected”. For the same compound, the “inhibition of other TRP channels” value in [4] is on record as “not, or only poorly, inhibited”. Besides, the “hypoxia-induced increase in pulmonary artery pressure (PAP)” value in series [5] is “completely abrogated”. The “suppression of OAG- or AlF4-induced TRPC6 activation, intracellular exposure (inside, pipet solution)” value in series [6] (1 μM in pipet solution) is reported as “not sufficient to suppress”. The “block of TRPC6 whole-cell current, blocker applied via the bath solution (outside)” value in series [6] (1 μM, OAG or AlF4- activation, holding potential -60 mV) was “efficient block”. Further, in [7], the “effect on TRPV1” value is given as “not affected”. In series [8], the “inhibition of calcium influx via TRPC6” value was “selectively inhibit calcium influx via TRPC6”. Also, in series [9], the “increase in lung wet weight (edema formation) under hypoxic treatment” value is “prevented the increase in lung wet weight”. For the same compound, the “cytotoxic effect (propidium iodide exclusion)” value in series [10] was “no cytotoxic effect”.

Take `C=C[C@@](C)(O)CC[C@H]1C(=C)C[C@H](O)[C@H]2C(C)(C)CCC[C@]12C` [larixol]: the “effect on TRPM3” value in series [1] was “not affected”. Besides, the “effect on TRPM8” value in [2] is reported as “not affected”. Also, in [3], the “effect on TRPM2” value is “not affected”. For the same compound, in [4], the “inhibition of other TRP channels” value was “not, or only poorly, inhibited”. In addition, the “effect on TRPV1” value in [7] is reported as “not affected”. Also, the “inhibition of calcium influx via TRPC6” value in series [8] is on record as “selectively inhibit calcium influx via TRPC6”.
